Results on 3 substances are retold here after patent US6699287B2, “Dermal scaffold using alkaline pre-treated chitosan matrix or alkaline pre-treated chitosan and alkaline pre-treated collagen mixed matrix” (Korea Atomic Energy Research Institute, priority 1999, dated 2004).

For this series, the system named is human dermal fibroblast cells. Briefly: Cytotoxicity test of chitosan derivates in vitro (MTT). The format is cell-based. Conditions: 48 hours after treatment. Here is the method: 1×10^4 of human dermal fibroblast cells in 96 well plate were cultured in DMEM medium supplemented with 100 μl of 10% serum. Then, the cultured cells were treated with 5, 50, and 500 ng/ml of chitosan oligomer, CM-chitin and 3,6-S-chitin, respectively. 48 hours after treatment, MTT (3-[4,5-dimethylthiazol-2-yl]-2,5-diphenyltetrazolium bromide; Thiazolyl blue, Sigma Product No. M5655) was added thereto and then, the mixture was allowed to stand for 4 hours. After removal of the culture medium, the resultant mixture was washed with phosphate buffered saline 2-3 times and 100 μl of DMSO (dimethylsulfoxide) was added thereto. After chromogenesis, an absorbance was measured at 545 nm on each well using ELISA reader.

Take 3,6-S-chitin: the “Viability Assay Result Of Human Dermal Fibroblasts (MTT absorbance at 545 nm)” value (5 ng/ml) was 0.608, the “Viability Assay Result Of Human Dermal Fibroblasts (MTT absorbance at 545 nm)” value (50 ng/ml) is listed as 0.727 and the “Viability Assay Result Of Human Dermal Fibroblasts (MTT absorbance at 545 nm)” value (500 ng/ml) came to 0.595.

As for CM-chitin, the “Viability Assay Result Of Human Dermal Fibroblasts (MTT absorbance at 545 nm)” value runs as follows: (5 ng/ml) 0.603; (50 ng/ml) 0.630; (500 ng/ml) 0.603.

Consider chitosan oligomer, for which the “Viability Assay Result Of Human Dermal Fibroblasts (MTT absorbance at 545 nm)” value (5 ng/ml) is on record as 0.629, the “Viability Assay Result Of Human Dermal Fibroblasts (MTT absorbance at 545 nm)” value (50 ng/ml) stood at 0.618 and the “Viability Assay Result Of Human Dermal Fibroblasts (MTT absorbance at 545 nm)” value (500 ng/ml) amounted to 0.733.
